Assays:
HepG2-2.2.15 cells = assay: Cell viability of HepG2-2.2.15 cells (dye uptake assay); type: cell-based; details: peptide 10 micrograms per ml
Experimental: (§1) HepG2-2.2.15 cells were plated in 96-well microtiter plates. After 16-24 hours the confluent monolayer of HepG2-2.2.15 cells was washed and the medium was replaced with complete medium containing test peptide—10 micrograms per ml—in duplicate. Lamivudine (3TC) was used as the positive control, while media alone was added to the cells as a negative control (virus control). Three days later the culture medium was replaced with fresh medium containing the peptide. Six days following the initial administration of the peptide, the cell culture supernatants was collected, treated with pronase and DNAse and then used in a real-time quantitative TaqMan PCR assay. The PCR-amplified HBV DNA was detected in real-time by monitoring increases in fluorescence signals that result from the exonucleolytic degradation of a quenched fluorescence probe molecule that hybridizes to the mplified HBV DNA. For each PCR amplification, a standard curve was simultaneously generated using dilutions of purified HBV DNA. Antiviral activity was calculated from the reduction in HBV DNA levels (% virus control). A novel dye uptake assay was then employed to measure cell viability, which is used to calculate toxicity (% cell control).

HIV-1IIIB = assay: HIV-1 antiviral assay (CPE reduction) in CEM-SS cells, MTS readout; details: for antiviral activity of positive control compounds (in words): assay validity statement; for % CPE reduction in HIV-1 infected CEM-SS cells: peptide 10 micrograms per ml, 6 days post-infection, MTS
MRC-5 cells = assay: in vitro; type: cell-based; details: human, 6 days
HCMV strain AD169 = assay: HCMV plaque reduction assay in MRC-5 cells; details: for % plaque reduction: HCMV in MRC-5 cells, peptide 10 micrograms per ml, 7-10 days
[1] = tested on: hepatitis B virus (HBV) ayw strain; assay: HBV replication assay in HepG2-2.2.15 cells (TaqMan PCR of secreted HBV DNA); type: cell-based; details: peptide 10 micrograms per ml; six days; HBV DNA in supernatant
From the text: HepG2-2.2.15 is a stable cell line containing the hepatitis B virus (HBV) ayw strain genome (ATCC Cat. No. CRL-11997). Antiviral compounds blocking any late step of viral replication such as transcription, translation, pregenome encapsidation, reverse transcription, particle assembly and release can be identified and characterized using this cell line. In this assay, an active compound will reduce the production of secreted HBV from cells, measured by utilizing real time quantitative PCR (TaqMan) assay to directly and accurately measure HBV DNA copies.
HepG2-2.2.15 cells were plated in 96-well microtiter plates. After 16-24 hours the confluent monolayer of HepG2-2.2.15 cells was washed and the medium was replaced with complete medium containing test peptide—10 micrograms per ml—in duplicate. […] Six days following the initial administration of the peptide, the cell culture supernatants was collected, treated with pronase and DNAse and then used in a real-time quantitative TaqMan PCR assay. The PCR-amplified HBV DNA was detected in real-time by monitoring increases in fluorescence signals that result from the exonucleolytic degradation of a quenched fluorescence probe molecule that hybridizes to the mplified HBV DNA. […] Antiviral activity was calculated from the reduction in HBV DNA levels (% virus control). […]

[2] = Cell viability of HepG2-2.2.15 cells (dye uptake assay); type: cell-based; details: human, peptide 10 micrograms per ml
Experimental: as §1

in vitro [3] = type: cell-based; details: human, MRC-5 cells
Pseudomonas aeruginosa = type: cell-based; details: 5 micrograms per ml
Streptococcus pneumoniae = type: cell-based; details: 5 micrograms per ml
A549 cells [4] = assay: Propidium iodide cell cycle assay; type: cell-based, Human; details: 24 hours, peptide 10 micrograms per ml, FACS
From the text: Human A549 cells (carcinomic human alveolar basal epithelial cells) were utilized in the experiments employing the Propidium iodide cell cycle assay. The eukaryotic cell cycle is a series of events that take place in a cell leading to its replication. The regulation of the cell cycle involves steps crucial to the cell, including detecting and repairing genetic damage, and provision of various checks to prevent uncontrolled cell division. The molecular events that control the cell cycle are ordered and directional; that is, each process occurs in a sequential fashion.
Propidium iodide is an intercalating agent and a fluorescent molecule that can be used to stain DNA. Cells were incubated for 24 hours with test peptide—10 micrograms per ml—or left untreated. After that cells were trypsinized, suspended in medium+10% FCS, centrifuged (1000 rpm, 5 min), and the cell pellet resuspended in PBS (1 ml). The cells were pipetted into 2.5 ml absolute EtOH (final concentration approx. 70%) and incubated on ice for 15 min. Thereafter, cells were pelleted at 1500 rpm for 5 min and resuspended in Propidium iodide solution in PBS. After incubation for 40 min at 37° C., cells were analyzed in the FACS.

[5] = tested on: Human Peripheral Blood Mononuclear Cells (PBMC); assay: T cell proliferation assay (PHA, 3H-thymidine); type: cell-based; details: peptide 10 micrograms per ml
Experimental: (§2) Human Peripheral Blood Mononuclear Cells (PBMC) were obtained from normal human donors. The T cell proliferation was induced by stimulation of the cells with the T cell mitogen phytohemagglutinin (PHA), either in the absence (positive proliferation control), or in the presence of test peptide—10 micrograms per ml—to examine their effects on the T cell proliferating response. 10^5/well PBMC were plated in 96-well microtiter plates and assayed in duplicate with the peptide. Cell cultures were incubated at 37° C. for 3 days in a 5% CO2 incubator and were thereafter pulsed with 1microCi/well ^3H-thymidine for additional 12 hours of culture. At the end of incubation time, the plates were harvested and the cells counted by liquid scintillation for the incorporation of ^3H-thymidine as a measure of T cell proliferation.

[6] = tested on: Human Peripheral Blood Mononuclear Cells (PBMC); assay: B cell proliferation assay (SAC plus Interleukin-2, 3H-thymidine); type: cell-based; details: peptide 10 micrograms per ml
Experimental: as §2, with “The B” for “The T”, “the B” for “the T”, “mitogen Staphylococcus aureus Cowans I (SAC) plus Interleukin-2,” for “mitogen phytohemagglutinin (PHA),”, “cell” for “cell proliferating”, “of B” for “of T”

A549 cells [7] = assay: Apoptosis induction assay (Annexin-5); type: cell-based, Human; details: 24 hours, peptide 10 micrograms per ml
From the text: Human A549 cells (carcinomic human alveolar basal epithelial cells) were utilized in the experiments employing the Annexin-5 apoptosis assay. Annexin-5 is a member of a highly conserved protein family that binds acidic phospholipids in a calcium-dependent manner. […] Phosphatidylserine is translocated from the inner side of the plasma membrane to the outer layer when cells undergo death by apoptosis or cell necrosis and serves as a signal by which cell destined for death are recognized by phagocytes. Test peptide—10 micrograms per ml—were exposed for 24 hours to the A549 cells before they were analyzed for signs of apoptosis.

A549 cells [8] = assay: Apoptosis prevention assay (C2 ceramide, Annexin-5); type: cell-based, Human; details: 30 min pretreatment, peptide 10 micrograms per ml
From the text: Human A549 cells (carcinomic human alveolar basal epithelial cells) were utilized in the experiments employing the Annexin-5 apoptosis assay. Annexin-5 is a member of a highly conserved protein family that binds acidic phospholipids in a calcium-dependent manner. […] Phosphatidylserine is translocated from the inner side of the plasma membrane to the outer layer when cells undergo death by apoptosis or cell necrosis and serves as a signal by which cell destined for death are recognized by phagocytes. A549 cells were pretreated for 30 min with test peptide—10 micrograms per ml—followed by the exposure to C2 ceramide. Ceramide mediates cell apoptosis through the activation of the mitogen activating protein kinase (MAPK) and the stress activated kinase (JNK/SAPK). C2 ceramide is a synthetic, membrane soluble analog of ceramide.

spleen cells = assay: Th1/Th2 cytokine profiling assay (Ovalbumin restimulated spleen cells, CBA kit); type: cell-based, Balb/c mice; details: peptide 10 micrograms per ml; Ovalbumin restimulation; 72 hours
From the text: The Balb/c mice (originated in 1923, it is a popular strain and is used in many different research disciplines. Also classified as an inbred from the production of 20 or more successive brother-sister matings, the Balb/c mouse is albino and small in size) were immunized on Days 1, 15, and 29 with Ovalbumin (Ovalbumin is the main protein found in egg white, commonly used to stimulate an immunological reaction in test animals) in PBS (5 micrograms/injection). On day 50, spleens of the mice were harvested (3 weeks after last boost with Ovalbumin). […] Thereafter, additional Ovalbumin was added to the cells at 10 micrograms/ml for in vitro restimulation of the cells. 72 hours later, cell supernatants were harvested and assayed using the Becton Dickinson Mouse Th1/Th2 Cytokine CBA Kit. This kit can be used to measure Interleukin-2 (IL-2), Interleukin-4 (IL-4), Interleukin-5 (IL-5), Interferon-γ (IFN-γ), and Tumor Necrosis Factor-α (TNF-α) protein levels in a single sample. The kit performance has been optimized for analysis of physiologically relevant concentrations (pg/ml levels) of specific cytokine proteins in tissue culture supernatants and serum samples.

[9] = tested on: macrophages prepared from PBMC; assay: TNF alpha production assay (LPS-stimulated macrophages, ELISA); type: cell-based, Human; details: peptide 10 micrograms per ml, lipopolysaccharide 200 ng/ml, overnight
Experimental: Human Peripheral Blood Mononuclear Cells (PBMC) were obtained from normal human donors. The macrophages were prepared by adherence of PBMC to the plastic wells of the plates. […] Not stimulated macrophages served as negative background control.
After overnight incubation, supernatants from the control and LPS-stimulated cultures were harvested and assayed for TNF alpha production employing a TNF alpha specific ELISA.

[10] = tested on: Primary Human endothelial cells (HUVEC); assay: Endothelial cell migration assay; type: cell-based; details: peptide 10 micrograms per ml, 22 hours
HUVEC = assay: Endothelial tube formation assay; type: cell-based, Human; details: peptide 10 micrograms per ml, 20 hours
From the text: […] control wes vehicle only. […] Raw data were expressed as average tubule lenghs in pixels±standard deviation.

MRSA = details: 5 micrograms per ml
in vitro [11] = details: human, CEM-SS cells
RAW 264.7 cells = assay: Phagocytosis assay (Fluorescein-labeled Escherichia coli); details: peptide 10 micrograms per ml, flow cytometry

## Nc1ccn([C@@H]2CS[C@H](CO)O2)c(=O)n1 [3TC, Lamivudine, reference compound]
HepG2-2.2.15 cells
  % Cell viability: 95.8%

## Cc1cn([C@H]2C[C@H](N=[N+]=[N-])[C@@H](CO)O2)c(=O)[nH]c1=O [AZT, zidovudine]
HIV-1IIIB
  antiviral activity of positive control compounds (in words): expected levels of antiviral activity
  % CPE reduction in HIV-1 infected CEM-SS cells: 99%

## Nc1nc(O)c2ncn(COC(CO)CO)c2n1 [Ganciclovir]
MRC-5 cells
  % Cell viability: 100%
HCMV strain AD169
  % plaque reduction: 100%
HCMV strain AD169; assay validity statement
  antiviral activity of positive control compound (in words): expected levels of antiviral activity

## CC(C)(C)NC(=O)[C@@H]1CN(Cc2cccnc2)CCN1C[C@@H](O)C[C@@H](Cc1ccccc1)C(=O)N[C@H]1c2ccccc2C[C@H]1O [Indinavir, indinavir]
HIV-1IIIB
  antiviral activity of positive control compounds (in words): expected levels of antiviral activity
  % CPE reduction in HIV-1 infected CEM-SS cells: 100%

## CC[C@H](C)[C@H](NC(=O)[C@H](CCC(=O)O)NC(=O)[C@H](CO)NC(=O)[C@@H](NC(=O)[C@@H](N)CO)C(C)C)C(=O)N[C@@H](CCC(N)=O)C(=O)N[C@@H](CC(C)C)C(=O)N[C@@H](CCSC)C(=O)N[C@@H](Cc1cnc[nH]1)C(=O)N[C@@H](CC(N)=O)C(=O)N[C@@H](CC(C)C)C(=O)NCC(=O)N[C@@H](CCCCN)C(=O)N[C@@H](Cc1cnc[nH]1)C(=O)N[C@@H](CC(C)C)C(=O)N[C@@H](CC(N)=O)C(=O)N[C@@H](CO)C(=O)N[C@@H](CCSC)C(=O)N[C@@H](CCC(=O)O)C(=O)N[C@@H](CCCN=C(N)N)C(=O)N[C@H](C(=O)N[C@@H](CCC(=O)O)C(=O)N[C@@H](Cc1c[nH]c2ccccc12)C(=O)N[C@@H](CC(C)C)C(=O)N[C@@H](CCCN=C(N)N)C(=O)N[C@@H](CCCCN)C(=O)N[C@@H](CCCCN)C(=O)N[C@@H](CC(C)C)C(=O)N[C@@H](CCC(N)=O)C(=O)N[C@@H](CC(=O)O)C(=O)N[C@H](C(=O)N[C@@H](Cc1cnc[nH]1)C(=O)N[C@@H](CC(N)=O)C(=O)N[C@@H](Cc1ccccc1)C(=O)O)C(C)C)C(C)C [pTH (1-34)]
[1]
  % inhibition of HBV replication in HEP G2 cells: 0.0%
[2]
  viability at 144 h, 10 micrograms per ml: 100%
In vitro [3]
  viability at 144 h: 100%
Pseudomonas aeruginosa
  % inhibition: 0.0%
Streptococcus pneumoniae
  % inhibition: 0.0%
A549 cells [4]
  Cell cycle analysis G0/G1: 59.1
  Cell cycle analysis G2/M: 7.5
  Cell cycle analysis S: 34.4
[5]
  % of PHA induced control: 110.2%
[6]
  % of SAC/IL2 induced control: 106.0%
A549 cells [7]
  % of induction: 1.1%
A549 cells [8]
  % prevention of ceramide induced apoptosis: 23.85%
Spleen cells
  IFNγ spleen cells; TH1 response (% of control): 68.6 % of control
  IL-2 spleen cells (% of control): 180.4 % of control
  IL-4 spleen cells; TH2 response (% of control): 135.2 % of control
  IL-5 spleen cells; TH2 response (% of control): 85.9 % of control
  TNF-a spleen cells; TH1 response (% of control): 114.1 % of control
[9]
  % of LPS induction: 117.1%
[10]
  % inhibition of migration: −4.0%
HUVEC
  % inhibition of tube formation: 28.0%
MRSA
  % inhibition: 0.0%
In vitro [11]
  viability at 10 micrograms per ml: 99.4%
HCMV strain AD169
  % plaque reduction: 0.0%
RAW 264.7 cells
  % of control phagocytosis: 102.9%
HIV-1IIIB
  % CPE reduction in HIV-1 infected CEM-SS cells: 18.1%

Reference: patent US20100184673A1, “USE OF PARATHYROID HORMONE ( 1-34 ) AS ANTI-HIV AGENT” (priority 2007, published 2010)
